Data reported in patent US5162354A, “3-halo-5-halomethyl-2-oxazolidinones and their use as microbicides” (Buckman Laboratories International, Inc., priority 1991, dated 1992).
Converted amounts (≈) assume the structure as drawn. Read-outs that look alike come from different tables or passages of the source.

Tests used:
Type in all cases: cell-based
Aspergillus niger = assay: Growth inhibiting activity on the fungus Aspergillus niger; settings: Aspergillus niger pH 6.0; completely prevented growth; read-out: Minimum inhibitory concentration against fungi
Description: The microorganism growth inhibiting activity of compounds 1-4 on the fungus Aspergillus niger was evaluated. The method is described in U.S. Pat. No. 4,945,109, column 5 beginning at line 47 to column 6, line 33. The disclosure of U.S. Pat. No. 4,945,109 is incorporated herein by reference.

Chlorococcum hypnosporum = assay: Growth inhibiting activity against algae in Difco Algae Broth (Chlorococcum hypnosporum); settings: 672 h, pH 7, read-out: Minimum inhibitory concentration against algae
Description: The growth inhibiting activity of the method of the invention against the three algae Chlorella pyrenoidosa, Chlorococcum hypnosporum and Phormidium inundatum was evaluated in Difco Algae Broth, the content of which was as follows:
Forty-gram portions of the algae medium were added to 250 mL Pyrex Erlenmeyer flasks fitted with loose metal caps and then sterilized. Each of the following substances was then added to the flasks in the order listed:
1. Sterile algae medium as required to bring the total weight of the contents of each flask to 50 grams, after allowing for all subsequent additions specified below.
2. A solution of one of compounds 1-4 or of a control agent to be evaluated in each test, to give the concentration desired in parts per million by weight.
3. Chlorella pyrenoidosa, Chlorococcum hypnosporum and Phormidium inundatum in amounts sufficient to give excellent growth in the controls after 14 days. This was achieved by adding 1 milliliter of a 14 day old culture having luxuriant growth. The Chlorella pyrenoidosa culture was obtained from American Type Culture Collection No. 7516; Chlorococcum hypnosporum, from the University of TX at Austin; and Phormidium inundatum, WI No. 1093, from the University of WA.
As a control experiment, WSCP was used as a positive control agent. WSCP is a known toxicant which kills C. pyrenoidosa at 2 ppm, C. hypnosporum at 2ppm, and P. inundatum at 10 ppm. Control experiments were also carried out where no toxicants were employed. In the algicidal tests, the growth of algae in the nutrient medium is lush green and can be seen with the naked eye. Because the minimum inhibitory concentrations of the compounds in this example are those which result in complete inhibition, evaluation of the test results is not subjective.
After the inoculum of the test algae was added, the flasks were incubated at a temperature of 28°±2° C. under fluorescent illumination of 250 foot-candle intensity (8 hours light, 16 hours darkness) for a period adequate for growth in the controls (those portions of medium which contained no toxicant). Observations of growth were made at 7-day intervals. Minimum inhibitory concentrations are those that prevented complete growth after 28 days.

Salmonella choleraesuis = assay: AOAC Disinfectant Swimming Pool Assay (Salmonella choleraesuis); settings: Salmonella enterica, 10 min, contact time 10 minutes, read-out: MIC (Minimum inhibitory concentration required to inhibit microorganisms)
Description: (§1) This example was based on the procedure described in AOAC (Association of Official Analytical Chemists) Official Methods of Analysis (1986) pp 75-77. The results obtained by this method are suitable for presumptive evidence of acceptability of products for disinfecting swimming pool water. The results obtained for Compound 1 in a contact time of 10 minutes are noted in Table IV.

Pseudomonas aeruginosa = assay: AOAC Disinfectant Swimming Pool Assay (Pseudomonas aeruginosa); settings: 10 min, contact time 10 minutes, read-out: MIC (Minimum inhibitory concentration required to inhibit microorganisms)
Description: as §1

Klebsiella pneumonia = assay: AOAC Disinfectant Swimming Pool Assay (Klebsiella pneumonia); settings: Klebsiella pneumoniae, 10 min, read-out: MIC (Minimum inhibitory concentration required to inhibit microorganisms)
Description: as §1

[1] = system: mixture of Staphylococcus aureus, Enterobacter aerogenes and Pseudomonas aeruginosa; assay: Long-term effectiveness in water as disinfectant, basal salts method, mixture of test organisms; settings: for activity maintained (percent kill): up to three days post-preparation in water, short contact (up to 10 min)
Description: In order to test the effectiveness of the compounds of the present invention over a period of 15 days, the following experiment was conducted using Compound 1.
The basal salts method described in U.S. Pat. No. 2,881,070 at column 5, beginning at line 12 and extending to column 6, line 53 was performed at two different pH values and percent kills were obtained with a mixture of test organisms (Staphylococcus aureus, Enterobacter aerogenes and Pseudomonas aeruginosa). […] At 80 ppm, prolonged sanitizing ability is maintained (99% or greater) with prolonged exposure times (24 hours contact through 15 […] post-preparation in water).
^a Control indicates the population of the test organism and is used
to make sure there is vigorous growth and to calculate % kills.

O=C1OC(CCl)CN1Br (stereo not shown) [Compound 1, 3-Bromo-5-chloromethyl-2-oxazolidinone]
MIC (Aspergillus niger): 10 µg/mL (≈ 46.6 µM) | MIC (Chlorococcum hypnosporum): 10 µg/mL (≈ 46.6 µM) | MIC (Salmonella choleraesuis): 80 µg/mL (≈ 373 µM) | MIC (Pseudomonas aeruginosa): 100 µg/mL (≈ 466 µM) | MIC (Klebsiella pneumonia): 100 µg/mL (≈ 466 µM) | killing at 40 ppm ([1]; 10 min, pH 6, Day 1 after preparation in soft water, pH 6.0, 10 min contact, read-out: % Reduction (Kill)): 100% | killing at 80 ppm ([1]; 10 min, pH 6, Day 1 after preparation in soft water, 80 ppm, pH 6.0, 10 min contact, read-out: % Reduction (Kill)): 100% | killing at 40 ppm ([1]; 10 min, pH 6, Day 2 after preparation in soft water, pH 6.0, 10 min contact, read-out: % Reduction (Kill)): 100% | killing at 80 ppm ([1]; 10 min, pH 6, Day 2 after preparation in soft water, 80 ppm, pH 6.0, 10 min contact, read-out: % Reduction (Kill)): 100% | killing at 40 ppm ([1]; 10 min, pH 6, Day 3 after preparation in soft water, pH 6.0, 10 min contact, read-out: % Reduction (Kill)): 100% | killing at 80 ppm ([1]; 10 min, pH 6, Day 3 after preparation in soft water, 80 ppm, pH 6.0, 10 min contact, read-out: % Reduction (Kill)): 100% | killing at 40 ppm ([1]; 10 min, pH 6, Day 4 after preparation in soft water, pH 6.0, 10 min contact, read-out: % Reduction (Kill)): 38.8% | killing at 80 ppm ([1]; 10 min, pH 6, Day 4 after preparation in soft water, 80 ppm, pH 6.0, 10 min contact, read-out: % Reduction (Kill)): 54.3% | killing at 40 ppm ([1]; 10 min, pH 6, Day 5 after preparation in soft water, pH 6.0, 10 min contact, read-out: % Reduction (Kill)): 26.8% | killing at 80 ppm ([1]; 10 min, pH 6, Day 5 after preparation in soft water, 80 ppm, pH 6.0, 10 min contact, read-out: % Reduction (Kill)): 41.4% | killing at 40 ppm ([1]; 10 min, pH 6, Day 14 after preparation in soft water, pH 6.0, 10 min contact, read-out: % Reduction (Kill)): 40% | killing at 80 ppm ([1]; 10 min, pH 6, Day 14 after preparation in soft water, 80 ppm, pH 6.0, 10 min contact, read-out: % Reduction (Kill)): 28.7% | killing at 40 ppm ([1]; 10 min, pH 6, Day 15 after preparation in soft water, pH 6.0, 10 min contact, read-out: % Reduction (Kill)): 39.3% | killing at 80 ppm ([1]; 10 min, pH 6, Day 15 after preparation in soft water, 80 ppm, pH 6.0, 10 min contact, read-out: % Reduction (Kill)): 13.1% | killing at 40 ppm ([1]; 10 min, pH 8, Day 1 after preparation in soft water, pH 8.0, 10 min contact, read-out: % Reduction (Kill)): 100% | killing at 80 ppm ([1]; 10 min, pH 8, Day 1 after preparation in soft water, 80 ppm, pH 8.0, 10 min contact, read-out: % Reduction (Kill)): 100% | killing at 40 ppm ([1]; 10 min, pH 8, Day 2 after preparation in soft water, pH 8.0, 10 min contact, read-out: % Reduction (Kill)): 100% | killing at 80 ppm ([1]; 10 min, pH 8, Day 2 after preparation in soft water, 80 ppm, pH 8.0, 10 min contact, read-out: % Reduction (Kill)): 100% | killing at 40 ppm ([1]; 10 min, pH 8, Day 3 after preparation in soft water, pH 8.0, 10 min contact, read-out: % Reduction (Kill)): 100% | killing at 80 ppm ([1]; 10 min, pH 8, Day 3 after preparation in soft water, 80 ppm, pH 8.0, 10 min contact, read-out: % Reduction (Kill)): 100% | killing at 40 ppm ([1]; 10 min, pH 8, Day 4 after preparation in soft water, pH 8.0, 10 min contact, read-out: % Reduction (Kill)): 34.2% | killing at 80 ppm ([1]; 10 min, pH 8, Day 4 after preparation in soft water, 80 ppm, pH 8.0, 10 min contact, read-out: % Reduction (Kill)): 46% | killing at 40 ppm ([1]; 10 min, pH 8, Day 5 after preparation in soft water, pH 8.0, 10 min contact, read-out: % Reduction (Kill)): 51.8% | killing at 80 ppm ([1]; 10 min, pH 8, Day 5 after preparation in soft water, 80 ppm, pH 8.0, 10 min contact, read-out: % Reduction (Kill)): 51.8% | killing at 40 ppm ([1]; 10 min, pH 8, Day 14 after preparation in soft water, pH 8.0, 10 min contact, read-out: % Reduction (Kill)): 69.5% | killing at 80 ppm ([1]; 10 min, pH 8, Day 14 after preparation in soft water, 80 ppm, pH 8.0, 10 min contact, read-out: % Reduction (Kill)): 83.8% | killing at 40 ppm ([1]; 10 min, pH 8, Day 15 after preparation in soft water, pH 8.0, 10 min contact, read-out: % Reduction (Kill)): 68.6% | killing at 80 ppm ([1]; 10 min, pH 8, Day 15 after preparation in soft water, 80 ppm, pH 8.0, 10 min contact, read-out: % Reduction (Kill)): 70.2% | killing at 40 ppm ([1]; 24 h, pH 6, Day 1 after preparation in soft water, pH 6.0, 24 hours contact, read-out: % Reduction (Kill)): 100% | killing at 80 ppm ([1]; 24 h, pH 6, Day 1 after preparation in soft water, 80 ppm, pH 6.0, 24 hours contact, read-out: % Reduction (Kill)): 100% | killing at 40 ppm ([1]; 24 h, pH 6, Day 2 after preparation in soft water, pH 6.0, 24 hours contact, read-out: % Reduction (Kill)): 100% | killing at 80 ppm ([1]; 24 h, pH 6, Day 2 after preparation in soft water, 80 ppm, pH 6.0, 24 hours contact, read-out: % Reduction (Kill)): 100% | killing at 40 ppm ([1]; 24 h, pH 6, Day 3 after preparation in soft water, pH 6.0, 24 hours contact, read-out: % Reduction (Kill)): 100% | killing at 80 ppm ([1]; 24 h, pH 6, Day 3 after preparation in soft water, 80 ppm, pH 6.0, 24 hours contact, read-out: % Reduction (Kill)): 100% | killing at 40 ppm ([1]; 24 h, pH 6, Day 4 after preparation in soft water, pH 6.0, 24 hours contact, read-out: % Reduction (Kill)): 99.6% | killing at 80 ppm ([1]; 24 h, pH 6, Day 4 after preparation in soft water, 80 ppm, pH 6.0, 24 hours contact, read-out: % Reduction (Kill)): 99.9% | killing at 40 ppm ([1]; 24 h, pH 6, Day 5 after preparation in soft water, pH 6.0, 24 hours contact, read-out: % Reduction (Kill)): 91.8% | killing at 80 ppm ([1]; 24 h, pH 6, Day 5 after preparation in soft water, 80 ppm, pH 6.0, 24 hours contact, read-out: % Reduction (Kill)): 99.6% | killing at 40 ppm ([1]; 24 h, pH 6, Day 14 after preparation in soft water, pH 6.0, 24 hours contact, read-out: % Reduction (Kill)): 99.8% | killing at 80 ppm ([1]; 24 h, pH 6, Day 14 after preparation in soft water, 80 ppm, pH 6.0, 24 hours contact, read-out: % Reduction (Kill)): 100% | killing at 40 ppm ([1]; 24 h, pH 6, Day 15 after preparation in soft water, pH 6.0, 24 hours contact, read-out: % Reduction (Kill)): 96% | killing at 80 ppm ([1]; 24 h, pH 6, Day 15 after preparation in soft water, 80 ppm, pH 6.0, 24 hours contact, read-out: % Reduction (Kill)): 100% | killing at 40 ppm ([1]; 24 h, pH 8, Day 1 after preparation in soft water, pH 8.0, 24 hours contact, read-out: % Reduction (Kill)): 100% | killing at 80 ppm ([1]; 24 h, pH 8, Day 1 after preparation in soft water, 80 ppm, pH 8.0, 24 hours contact, read-out: % Reduction (Kill)): 100% | killing at 40 ppm ([1]; 24 h, pH 8, Day 2 after preparation in soft water, pH 8.0, 24 hours contact, read-out: % Reduction (Kill)): 100% | killing at 80 ppm ([1]; 24 h, pH 8, Day 2 after preparation in soft water, 80 ppm, pH 8.0, 24 hours contact, read-out: % Reduction (Kill)): 100% | killing at 40 ppm ([1]; 24 h, pH 8, Day 3 after preparation in soft water, pH 8.0, 24 hours contact, read-out: % Reduction (Kill)): 100% | killing at 80 ppm ([1]; 24 h, pH 8, Day 3 after preparation in soft water, 80 ppm, pH 8.0, 24 hours contact, read-out: % Reduction (Kill)): 100% | killing at 40 ppm ([1]; 24 h, pH 8, Day 4 after preparation in soft water, pH 8.0, 24 hours contact, read-out: % Reduction (Kill)): 98.7% | killing at 80 ppm ([1]; 24 h, pH 8, Day 4 after preparation in soft water, 80 ppm, pH 8.0, 24 hours contact, read-out: % Reduction (Kill)): 100% | killing at 40 ppm ([1]; 24 h, pH 8, Day 5 after preparation in soft water, pH 8.0, 24 hours contact, read-out: % Reduction (Kill)): 99.9% | killing at 80 ppm ([1]; 24 h, pH 8, Day 5 after preparation in soft water, 80 ppm, pH 8.0, 24 hours contact, read-out: % Reduction (Kill)): 99.9% | killing at 40 ppm ([1]; 24 h, pH 8, Day 14 after preparation in soft water, pH 8.0, 24 hours contact, read-out: % Reduction (Kill)): 99.5% | killing at 80 ppm ([1]; 24 h, pH 8, Day 14 after preparation in soft water, 80 ppm, pH 8.0, 24 hours contact, read-out: % Reduction (Kill)): 99.9% | killing at 40 ppm ([1]; 24 h, pH 8, Day 15 after preparation in soft water, pH 8.0, 24 hours contact, read-out: % Reduction (Kill)): 99.3% | killing at 80 ppm ([1]; 24 h, pH 8, Day 15 after preparation in soft water, 80 ppm, pH 8.0, 24 hours contact, read-out: % Reduction (Kill)): 100% | killing at 80 ppm ([1]; 24 h, read-out: prolonged sanitizing ability maintained (percent kill), 80 ppm, 24 hours contact, through 15 days post-preparation in water): ≥ 99% | activity maintained (percent kill) ([1]; pH 6): ≥ 99.99% | activity maintained (percent kill) ([1]; pH 8): ≥ 99.96%
